Reference: patent publication US6528535B2, “Bicyclic inhibitors of protein farnesyl transferase” (Warner-Lambert Company, priority 1997, dated 2003)

What was measured:
[1] = molecular target: T1, SF9 affinity purified rat FPT (Rattus norvegicus, UniProt Q02293+Q04631); experiment: PFT (farnesyl protein transferase) inhibitory activity, radiolabeled farnesyl pyrophosphate / biotinyl peptide bead assay; assay type: biochemical; conditions: average of two tests unless n is given in parentheses; read-out: FTase, IC50
T1 construct: made in house; host or cells: Sf9 insect cells
Description: The protein:farnesyl transferase (PFT) or farnesyl protein transferase (FPT) inhibitory activity of compounds of the present invention were assayed in HEPES buffer (pH 7.4) containing 5 mM potassium phosphate and 20 μM ZnCl2. The solution also contained 5 mM DTT (dithiothreitol), 5 mM MgCl2, and 0.1% PEG 8000. Assays were performed in 96 well plates (Wallec) and employed solutions composed of varying concentrations of a compound of the present invention in 10% DMSO (dimethylsulfoxide). Upon addition of both substrates, radiolabeled farnesyl pyrophosphate ([1^3H], specific activity 15-30 Ci/mmol, final concentration 134 nM) and (biotinyl)-Ahe-Thr-Lys-Cys-Val-Ile-Met ([3aS[3a alpha, 4 beta, 6a alpha]-hexahydro-2-oxo-1H-thieno[3,4-d]imidazole-5-pentanoic acid]-[7-aminoheptanoic acid]-Thr-Lys-Cys-Val-Ile-Met) (Ahe is 7-aminoheptanoic acid, Thr is threonine, Lys is lysine, Cys is cysteine, Val is valine, Ile is isoleucine, and Met is methionine) (final concentration 0.2 μM), the enzyme reaction was started by addition of SF9 affinity purified rat FPT. After incubation at 30° C. for 30 minutes, the reaction was terminated by diluting the reaction 2.5-fold with a stop buffer containing 1.5 M magnesium acetate, 0.2 M H3PO4, 0.5% BSA (bovine serum albumin), and strepavidin beads (Amersham) at a concentration of 1.3 mg/mL. After allowing the plate to settle for 30 minutes at room temperature, radioactivity was quantitated on a microbeta counter (Model 1450, Wallec). The assay was also carried out without 5 mM potassium phosphate.

[2] = system: EJ-1 human bladder carcinoma; conditions: 100 mg/kg; EJ-1 human bladder carcinoma xenograft in nude mice; cited from earlier work
[3] = system: HT1080 human fibrosarcoma; conditions: 100 mg/kg; HT1080 human fibrosarcoma xenograft in nude mice; cited from earlier work
[4] = system: human colon carcinoma xenografts; conditions: 100 mg/kg; human colon carcinoma xenografts in nude mice; cited from earlier work
[5] = system: human lung carcinoma with K-ras mutation and p53 deletion; conditions: nude mice; cited from earlier work
[6] = system: mammary and salivary carcinomas; conditions: daily administration; ras transgenic mice; cited from earlier work

CSc1ccc(C=C2CCc3cc(OCCc4c[nH]cn4)ccc3C2=O)cc1 [Example 31, 6-[2-(1H-Imidazole-4-yl)-ethoxy]-2-(4-methylsulfanyl-benzylidene)-3,4-dihydro-2H-naphthalen-1-one]
IC50 [1]: 0.59 µM
melting point: 65 to 70 °C

CSc1ccc(C=C2CCc3cc(OCCc4c[nH]cn4)ccc3C2=O)s1.Cl [Example 32, 6-[2-(1H-Imidazole-4-yl)-ethoxy]-2-(5-methylsulfanyl-thiophen-2-ylmethylene)-3,4-dihydro-2H-naphthalen-1-one, monohydrochloride]
IC50 [1]: 9.1 µM
melting point: 168 to 169 °C

CCN(CC)C(=O)c1ccc(C=C2CCc3cc(OCCc4c[nH]cn4)ccc3C2=O)cc1.Cl [Example 34, N,N-Diethyl-4-{6-[2-(1H-imidazole-4-yl)-ethoxy]-1-oxo-3,4-dihydro-1H-naphthalen-2-ylidenemethyl}-benzamide, monohydrochloride]
IC50 [1]: 12.2 µM
melting point: 211 to 213 °C

Cc1ccc(C=C2CCc3cc(OCCc4c[nH]cn4)ccc3C2=O)s1 [Example 37, 6-[2-(1H-Imidazole-4-yl)-ethoxy]-2-(5-methyl-thiophen-2-ylmethylene)-3,4-dihydro-2H-naphthalen-1-one]
IC50 [1]: 0.49 µM
melting point: 69 to 70 °C

Cc1ccsc1C=C1CCc2cc(OCCc3c[nH]cn3)ccc2C1=O [Example 39, 6-[2-(1H-Imidazole-4-yl)-ethoxy]-2-(3-methyl-thiophen-2-ylmethylene)-3,4-dihydro-2H-naphthalen-1-one]
IC50 [1]: 3.1 µM
melting point: 191 to 193 °C

O=C1C(=Cc2ccco2)CCc2cc(OCCc3c[nH]cn3)ccc21 [Example 41, 2-Furan-2-ylmethylene-6-[2-(1H-imidazole-4-yl)-ethoxy]-3,4-dihydro-2H-naphthalen-1-one]
IC50 [1]: 0.19 µM
melting point: 57 to 60 °C

O=C1C(=Cc2ccc(Br)cc2)CCc2cc(OCCc3c[nH]cn3)ccc21 [Example 42, 2-(4-Bromo-benzylidene)-6-[2-(1H-imidazole-4-yl)-ethoxy]-3,4-dihydro-2H-naphthalen-1-one]
IC50 [1]: 5.9 µM
melting point: 176 to 178 °C

Cl.O=C1CCCc2cc(OCCCc3c[nH]cn3)ccc21 [Example 43, 6-[3-(1H-Imidazole-4-yl)-propoxy]-3,4-dihydro-2H-naphthalen-1-one, hydrochloride]
IC50 [1]: 4.4 µM
melting point: 153 to 155 °C

O=C1/C(=C/C=C/c2ccccc2)CCc2cc(OCCn3ccnc3)ccc21 [Example 44, (E,E)-6-(2-Imidazol-1-yl-ethoxy)-2-(3-phenyl-allylidene)-3,4-dihydro-2H-naphthalen-1-one]
IC50 [1]: 3.6 µM
melting point: 198 to 200 °C

Cc1cc2c(cc1OCCn1ccnc1)CC/C(=C\c1cccs1)C2=O [Example 46, 6-[2-(1H-1-Imidazolyl)ethoxy]-7-methyl-2-[(E)-1-(2-thienyl)methylidene]-1,2,3,4-tetrahydro-1-naphthalenone]
IC50 [1]: 15.4 µM
melting point: 150 to 151 °C

Cc1c(OCCn2ccnc2)ccc2c1CCCC2=O [Example 47, 6-[2-(1H-1-Imidazolyl)ethoxy]-5-methyl-1,2,3,4-tetrahydro-1-naphthalenone]
IC50 [1]: 1.3 µM
melting point: 110 to 112 °C

Cc1c(OCCn2ccnc2)ccc2c1CC/C(=C\c1cccs1)C2=O [Example 48, 6-[2-(1H-1-Imidazolyl)ethoxy]-5-methyl-2-[(E)-1-(2-thienyl)methylidene]-1,2,3,4-tetrahydro-1-naphthalenone]
IC50 [1]: 0.4 µM
melting point: 182 to 184 °C

O=c1ccoc2cc(OCCn3ccnc3)ccc12 [Example 50, 7-[2-(1H-1-Imidazolyl)ethoxy]-4H-4-chromenone]
IC50 [1]: 2.6 µM
melting point: 131 to 133 °C

O=C1CCOc2cc(OCCn3ccnc3)ccc21 [Example 51, 7-[2-(1H-1-Imidazolyl)ethoxy]-4-chromanone]
IC50 [1]: 4.4 µM
melting point: 128 to 130 °C

ON=C1CCCc2cc(OCCn3ccnc3)ccc21 [Example 53, 6-[2-(1H-1-Imidazolyl)ethoxyl]-1,2,3,4-tetrahydro-1-naphthalenone oxime]
IC50 [1]: 3 µM
melting point: 177 to 179 °C

O=C(O)CON=C1CCCc2cc(OCCn3ccnc3)ccc21 [Example 54, [6-(2-Imidazol-1-yl-ethoxy)-3,4-dihydro-2H-naphthalen-1-ylideneaminooxy]-acetic acid]
IC50 [1]: 0.34 µM
melting point: 193 to 195 °C

O=C1CC(c2ccccc2)Oc2cc(OCCn3ccnc3)ccc21 (centres unmarked) [Example 76, 7-[2-(1H-1-Imidazolyl)ethoxy]-2-phenyl-4-chromanone]
IC50 [1]: 0.12 µM
melting point: 139 to 140 °C

O=c1cc(-c2ccccc2)oc2cc(OCCn3ccnc3)ccc12 [Example 77, 7-[2-(1H-1-Imidazolyl)ethoxy]-2-phenyl-4H-4-chromenone]
IC50 [1]: 9.3 µM
melting point: 155 to 159 °C

CC(COc1ccc2c(c1)CCCC2=O)n1ccnc1 (centres unmarked) [Example 78, 6-[2-(1H-1-Imidazolyl)propoxy]-1,2,3,4-tetrahydro-1-naphthalenone]
IC50 [1]: 2.6 µM
melting point: 132 to 135 °C

CC(COc1ccc2c(c1)CC/C(=C\c1cccs1)C2=O)n1ccnc1 (centres unmarked) [Example 79, 6-[2-(1H-1-Imidazolyl)propoxy]-2-[(E)-1-(2-thienyl)methylidene]-1,2,3,4-tetrahydro-1-naphthalenone]
IC50 [1]: 0.23 µM
melting point: 160 to 162 °C

CC1(C)CC(=O)c2ccc(OCCn3ccnc3)cc2O1 [Example 83, 7-[2-(1H-Imidazolyl)ethoxy]-2,2-dimethyl-4-chromanone]
IC50 [1]: 0.9 µM
melting point: 84 to 86 °C

COC(=O)[C@H](CCSC)NC(=O)[C@H](/C=C\[C@@H](/C=C/[C@@H](N)CS)C(C)C)Cc1ccccc1 [Example B1086]
tumor growth [2]: inhibit tumor growth
tumor growth [3]: inhibit tumor growth
tumor growth [4]: inhibit tumor growth

CSCC[C@H](NC(=O)c1ccc(NC[C@@H](N)CS)cc1-c1ccccc1)C(=O)O [FTI276]
tumor growth [5]: selectively block tumor growth

CC[C@H](C)[C@@H](CO[C@@H](Cc1ccccc1)C(=O)N[C@@H](CCS(C)(=O)=O)C(=O)OC(C)C)NC[C@@H](N)CS [L-744,832]
tumor regression [6]: caused tumor regression
